The text below walks through data of ChEMBL document CHEMBL3046210, “6-Imino-2-thioxo-pyrimidinones as a new class of dipeptidyl peptidase IV inhibitors” (Med Chem Res, 2011).

One data set concerns HepG2. The data set is described as follows: Cytotoxicity against Homo sapiens (human) HepG2 cells up to 0.1 mM after 24 hr by MTS assay. Format: cell-based. The note with it: hepg2, 24 h. On the technique in general: Tetrazolium dyes change colour on reduction, which living cells bring about.
Another data set relates to THP-1. The data set is described as follows: Cytotoxicity against Homo sapiens (human) THP1 cells up to 0.1 mM after 24 hr by MTS assay. The following applies: thp-1, 24 h. The data set is classed as cell-based.

Regarding `CCCCC1(Cc2cc(OC)c(OC)c(OC)c2)C(=N)NC(=S)NC1=O` (stereo unspecified), the Activity entry in the data set on HepG2 and with THP-1 was “Non-toxic” in each case.

Consider `COc1cc(CC2(Cc3cc(OC)c(OC)c(OC)c3)C(=N)NC(=S)NC2=O)cc(OC)c1OC`, for which the Activity result with HepG2 and in the data set on THP-1 was “Non-toxic” each time.

For `C=CCC1(Cc2cc(OC)c(OC)c(OC)c2)C(=N)NC(=S)NC1=O` (stereo unspecified), the Activity result in the data set on HepG2 and in the data set with THP-1 was “Non-toxic” in each case.

Take `COc1cc(CC2(C(C)C)C(=N)NC(=S)NC2=O)cc(OC)c1OC` (stereo unspecified): the Activity entry with HepG2 and in the data set with THP-1 was “Non-toxic” throughout.

In the case of `CCC1(Cc2cc(OC)c(OC)c(OC)c2)C(=N)NC(=S)NC1=O` (stereo unspecified), the Activity entry with HepG2 and in the data set on THP-1 was “Non-toxic” each time.

`CCCC1(Cc2cc(OC)c(OC)c(OC)c2)C(=N)NC(=S)NC1=O` (stereo unspecified): the Activity entry in the data set on HepG2 and with THP-1 was “Non-toxic” each time.

Turning to `COc1cc(CC2(C)C(=N)NC(=S)NC2=O)cc(OC)c1OC` (stereo unspecified), the Activity result in the data set on HepG2 and in the data set on THP-1 was “Non-toxic” in each case.

Consider `COc1cc(CC2C(=N)NC(=S)NC2=O)cc(OC)c1OC` (stereo unspecified), for which the Activity result in the data set on HepG2 and with THP-1 was “Non-toxic” each time.
